According to patent US8677934B2 (Yissum Research Development Company of the Hebrew …, priority 2007, dated 2014):
Positions of bridges follow the written chain, without caps; N, C: chain ends. Residues, ends and D or L forms follow the SMILES beside them.

Experiments:
[1] = system: D. melanogaster females; experiment: Receptivity assay, ectopic expression in unmated females by heat-inducible GAL4 driver (hsp70-GAL4); type: in vivo, Drosophila melanogaster; conditions: for duration of rejection behavior (kicking and extruding ovipositor): days examined
Experimental: Heat shock. Transgenic unmated females carrying the mutated T-SP (hsp70-GAL4; UAS-T-SPX) were placed in empty vials supplemented with moisture filter paper. Files were placed in water bath and heated gradually from 25 to 37° C. Flies were kept at this temperature for 1 hr thereafter returned to room temperature for one hour for recovery. Recovered heat-shocked flies were placed in food vials and kept at 25° C. until used.
(§1) Receptivity assay. Single unmated females of each homogenous UAS-T-SP transgene (see also Table 2) were placed in a food vial with single unmated 3-5-day-old males of the same UAS-T-SP transgene. Two parameters were monitored for one hour: (i) Receptivity rate—the number of female that mated; (ii) courtship behavior—whether or not female performed a rejection behaviors (kicking and extruding their ovipositor). […] For that a group of 10 females were isolated from each group and their behavior was inspected. […] These females will be exposed in the next day to newly unmated 3-5-day-old males (see section developing bioassay for additional details).
To examine the effect of the modified T-SP on female receptivity we first developed a sensitive bioassay that provided optimal conditions to test the transgenes. […] We examined two independent lines to determine the effect of exposure to one or two males and whether a window of one hour would be sensitive enough to detect changes in female behavior. Four-day-old unmated females were placed with one or two males in a fresh food vial and their behavior was documented. Mated females were separated from males and left in the food vials. Twenty four hours later the females were re-exposed to unmated 3-day-old males and inspected for mating encounter and courting behavior for 1 hour. […] About 50% of the females re-mated after 4 to 5 days (FIGS. 7A-B).
Since a change in the willingness of the female to mate is expressed in their behavior, we next developed a qualitative behavioral bioassay. Mated females reject the courting males by extruding their ovipositor toward the male and/or by kicking the courting male. Theses behaviors are not seen in unmated females. We set up a system in which we inspected whether or not the female kicks the male and extrudes her ovipositor toward the male (see material and methods), both of which are predictors of female receptivity status.

[2] = type: in vitro ADME, Drosophila melanogaster
Experimental: Liquid Chromatography—Mass Spectrometery (LC-MS/MS). Hemolymph was prepared as described in section 2.3, except that 50 D. melanogaster female-equivalents of unmated or mated female flies were used for 30 min incubations with 20 μg of T-SP. Reactions were terminated and processed as detailed in section 2.5. The supernatants of the methanol precipitations were lyophilized and resuspended by sonication in 100 μl of loading buffer (5% acetonitrile, 0.1% formic acid) and analyzed by LC-MS/MS. Briefly, the peptide mixtures were run in an Agilent 1100 series micro-flow HPLC system (Agilent Technologies, Inc., Palo Alto, Calif.) coupled to an Esquire-HCT ion trap mass spectrometer through the online nano-ESI ion source (Broker Daltonik GmbH, Bremen). Peptides were separated on a Protein-15-C18-150 microbore column (Micro-Tech Scientific, Cousteau, Court Vista, Calif.) using a 5% to 30% gradient of acetonitrile in 0.1% formic acid for 37 min at […], at a flow rate of 1 μl/min. MS and MS2 spectra were acquired in a data-driven way with parameters optimized for peptide mixture analysis. The resulting MS/MS chromatograms were processed by the DataAnalysis 3.1 application and further analysed with BioTools 2.2 (Broker Daltonik GmbH, Bremen) and MASCOT (Matrix Science), assuming the unknown specificity of the hemolymph protease. A 95% confidence interval was set as threshold. […]

[3] = system: D. melanogaster females; experiment: Receptivity assay, peptide expressed in male accessory glands and transferred to the female during mating; type: in vivo, Drosophila melanogaster; conditions: transgene received from male seminal fluid, FIG. 14
From the text: Transgenic flies. The GAL4-UAS system, first described by Brand and Perrimon (1993), was used for transgenesis of D. melanogaster. Briefly, T-SP was cloned into the pUAST vector, which bears an upstream activating sequence (UAS) site able to bind to the yeast transcription factor GAL4. Two separate fly lines are reared, the one (UAS) bearing the gene(s) to be transcribed and a chosen promoter (target line), the second being the GAL4 activating line. By select and controlled crossing of these two parent lines, the transgene, in this case T-SP or its amino-acid substituted homolog, is activated and expressed in the filial generation, at different times during development, and/or in select tissues, dependent on the promoter and inducer utilized. In this case, the GAL4 gene is under the control of the accessory gland specific promoter 26Aa that is induced only in the accessory glands (Park et al., 1994).
RT-PCR. Expression was induced by a heat-inducible GAL4 driver (hsp70-GAL4), or with the Acp26Aa GAL4 driver (Acp26Aa-GAL4) which, restricts expression to the male accessory glands exclusively. To verify the expression of T-SP, groups of 10 heat-shocked females were taken at different time post-heat-shock, placed in Eppendorf tubes, quick-frozen in liquid nitrogen and kept at −80° C. until subject to RNA extraction. mRNA extraction was performed with Dynabeads (Invitrogen) according to the manufacturer's instructions.
as §1, with “details). […]” for “details).”

[4] = system: trypsin activity of mated female hemolymph; experiment: Trypsin inhibition assay: cleavage of N-Bnz-R-pna by mated female hemolymph; type: biochemical, Drosophila melanogaster; conditions: 20 min pre-incubation, with DTT
Experimental: Hemolymph sample preparation. Hemolymph from batches of 250 unmated or mated females was extracted 4 days after eclosion as in Lung and Wolfner (1999). Briefly, groups of 5 flies, punctured in the prothorax, were placed head down in chilled Eppendorf tubes (0.5 ml tube pierced in the bottom and inserted into intact 1.5 ml tubes) and centrifuged at 4° C. Tubes were inspected for presence of fat body. Ten μl of 100 mM Tris buffer, pH 8.0, was added to the first tube, and then the collected hemolymph plus Tris from tube 1 was transferred from this tube to the next tube and so on, in to pool hemolymph extracted from unmated or mated female flies.
Protease and inhibition assays. Protease activity in D. melanogaster female hemolymph was assayed using chromogenic substrates. […]
Commercial enzymes (response controls of the specific reaction mixture) were dissolved in 100 mM Tris buffer, pH 8.0, at a concentration of 5 μg/μl. […] Activity was recorded as increase in absorbance, due to the release of 4-nitroaniline, as measured using an ELISA reader with 405 nm filter in an ELISA Plate Reader (ELx800, Bio-Tek Instruments). Values are relative absorbance readings, obtained with equal fly-equivalents of hemolymph as source of protease. […] Hemolymph protein content was measured spectroscopically at 280 nm, and was 0.5-1 μg per female. […]

[5] = system: CA of young unmated female C. capitata; experiment: In-vitro synthesis of JHB3 by the corpus allatum; design: species or system Ceratitis capitata; conditions: DrmSP with its N-terminal motif
[6] = mated female hemolymph (50 D. melanogaster female-equivalents); conditions: 37° C., up to 40 min
[7] = hemolymph extracted from 4-days old mated females, in 100 mM Tris buffer, pH 8.0; conditions: D. melanogaster, 37° C., up to 60 min
[8] = system: Elastase; experiment: Elastase from porcine pancreas in 100 mM Tris buffer, pH 8.0; conditions: 37° C., up to 60 min
[9] = hsp70-GAL4 driver, FIG. 10, wild-type threshold 4-5 days
[10] = other independent lines, FIG. 11, n=20

## CC[C@H](C)[C@H](NC(=O)[C@@H]1CCCN1C(=O)[C@H](Cc1ccccc1)NC(=O)[C@H](CCCCN)NC(=O)[C@@H](NC(=O)[C@@H]1CCCN1C(=O)[C@@H](N)CCCCN)[C@@H](C)O)C(=O)N1CCC[C@H]1C(=O)N[C@@H](CO)C(=O)N1CCC[C@H]1C(=O)N[C@@H](CC(N)=O)C(=O)N1CCC[C@H]1C(=O)N[C@@H](CCCNC(=N)N)C(=O)N[C@@H](CC(=O)O)C(=O)N[C@@H](CCCCN)C(=O)N[C@@H](Cc1c[nH]c2ccccc12)C(=O)N[C@H]1CSSC[C@@H](C(=O)O)NC(=O)[C@H](CCCNC(=N)N)NC(=O)CNC(=O)CNC(=O)[C@H](Cc2c[nH]c3ccccc23)NC(=O)[C@H](C)NC(=O)[C@@H]2CCCN2C(=O)CNC(=O)[C@H](CC(C)C)NC(=O)[C@H](CC(N)=O)NC(=O)[C@H](CC(C)C)NC(=O)[C@H](CCCNC(=N)N)NC1=O [T-SP] (H-KPTKFPIPSPNPRDKWCRLNLGPAWGGRC-OH; disulfide 17-29; N-terminus and C-terminus assumed)
[1]; [9]
  duration of induced female non-receptivity: 8 days
[1]; hsp70-GAL4 driver
  duration of rejection behavior (kicking and extruding ovipositor): 8 days
[1]; [10]
  duration of induced female non-receptivity: 8 days
[2]
  number of different fragments yielded: 11
  number of fragments obtained: five
[3]
  time at which females commenced re-mating after the first mating: three

## Cc1ccc(S(=O)(=O)N[C@@H](CCCCN)C(=O)CCl)cc1.Cl [TLCK, Na-p-Tosyl-L-lysine chloromethyl ketone hydrochloride]
[4]; TLCK 1 mM final
  reduced cleavage of N-Bnz-R-pna: 40%

## DrmSP: Drosophila melanogaster Sex Peptide; mature form a linear peptide of 36 amino acids with an S-S bridge
[5]
  effect on in-vitro synthesis of JHB3: depresses

## KPTKFPIPSPNPRDKWCRLNLGPAWGGRC
[6]
  cleaved bond: R25-L26, major, 30 min

## N-Succinyl-Ala-Ala-Ala-pna
[7]
  not cleaved: elastase activity was not observed

## N-Succinyl-Ala-Ala-Pro-Ile-pna
[7]
  cleaved bond: I-pna

## N-Succinyl-Ala-Ala-Pro-Leu-pna
[7]
  cleaved bond: L-pna

## N-Succinyl-Ala-Ala-Val-pna
[7]
  cleaved bond: V-pna
[8]
  cleaved bond: V-pna

## T-SPQ: T-SP with arginine at position 25 substituted with glutamine, KPTKFPIPSPNPRDKWCQLNLGPAWGGRC (SEQ ID NO: 12); expressed transgenically
[1]; [9]
  duration of induced female non-receptivity: 8 days
[1]; hsp70-GAL4 driver
  duration of rejection behavior (kicking and extruding ovipositor): 8 days
[1]; [10]
  duration of induced female non-receptivity: 8 days
[3]
  percentage of re-mating compared with T-SP: lower percentages
  time at which females commenced re-mating after the first mating: 5 days

## Z-Gly-Gly-Leu-p-Nitroanilide
[7]
  not cleaved: Neither chymotrypsin nor subtilisin activity were evident

B1: Bowman-Birk inhibitor (protein)
chain: DDESSKPCCDQCACTKSNPPQCRCSDMRLNSCHSACKSCICALSYPAQCFCVDITDFCYEPCKPSEDDKEN
[4]; BBI 5 μM final
  reduced cleavage of N-Bnz-R-pna: 78%
